Measurements published in ChEMBL document CHEMBL2034952, “Chalcone-benzoxaborole hybrid molecules as potent antitrypanosomal agents” (J Med Chem, 2012).
Converted amounts (≈) assume the structure as drawn. The source made the active and inactive calls. The rule behind the calls is not given here.

Columns and labels:
[1] = system: Trypanosoma brucei; assay: Antitrypanosomal activity against bloodstream Trypanosoma brucei 427 after 72 hrs by resazurin assay; format: functional, organism-based; settings: Trypanosoma brucei, 427, 72 h
[2] = system: L929; assay: Cytotoxicity against mouse L929 cells after 72 hrs by resazurin assay; format: cell-based; settings: L929, 72 h
[3] = system: Trypanosoma brucei; assay: Antitrypanosomal activity against bloodstream Trypanosoma brucei 221 infected in Balb/c mouse assessed as increase in mouse survival rate at 50 mg/kg, ip BID for 5 days starting 24 hrs post infection measured after 30 days by microscopic analysis; format: functional; settings: Trypanosoma brucei, 221, ip, route intraperitoneal
[4] = system: Trypanosoma brucei; assay: Antitrypanosomal activity against bloodstream Trypanosoma brucei 221 infected in Balb/c mouse assessed as complete elimination of parasitemia at 50 mg/kg, ip BID for 5 days starting 24 hrs post infection measured after 30 days by microscopic analysis; format: functional, organism-based; design: dose 50 mg/kg
[5] = Selectivity ratio of IC50 for mouse L929 cells to IC50 for bloodstream Trypanosoma brucei 427; format: ADME, cell-based; settings: read-out: Ratio IC50

SMILES	IC50 [1] [µg/mL]	IC50 [2] [µg/mL]	survival at 50 mg/kg [3] [%]	Activity [4]	selectivity ratio [5]
COc1ccc(C(=O)/C=C/c2ccc3c(c2)B(O)OC3)cc1	0.071 (≈ 0.241 µM)	> 10	0	–	–
COc1cc(C(=O)/C=C/c2ccc3c(c2)B(O)OC3)ccc1[N+](=O)[O-]	0.044 (≈ 0.13 µM)	> 10	0	–	–
COCOc1ccccc1C(=O)/C=C/c1ccc2c(c1)B(O)OC2	0.366 (≈ 1.13 µM)	9.02 (≈ 27.8 µM)	–	–	–
COc1cccc(C(=O)/C=C/c2ccc3c(c2)B(O)OC3)c1	0.022 (≈ 0.0748 µM)	> 10	100	Active	–
O=C(/C=C/c1ccc2c(c1)B(O)OC2)c1cccc2ccccc12	0.135 (≈ 0.43 µM)	3.67 (≈ 11.7 µM)	–	–	–
O=C(/C=C/c1ccccc1)c1ccccc1 [CHALCONE]	0.473 (≈ 2.27 µM)	6.92 (≈ 33.2 µM)	–	–	–
O=C(/C=C/c1ccc2c(c1)B(O)OC2)c1ccc(OCc2ccccc2)cc1	0.164 (≈ 0.443 µM)	> 10	–	–	–
CCOC(=O)c1ccc(C(=O)/C=C/c2ccc3c(c2)B(O)OC3)cc1	0.2 (≈ 0.595 µM)	> 10	–	–	–
O=C(/C=C/c1ccc2c(c1)B(O)OC2)c1cccs1	0.045 (≈ 0.167 µM)	> 10	20	–	–
O=C(/C=C/c1ccc2c(c1)B(O)OC2)c1ccc(Cl)cc1	0.06 (≈ 0.201 µM)	> 10	0	–	–
O=C(CCc1ccc2c(c1)B(O)OC2)c1ccccc1	0.331 (≈ 1.24 µM)	> 10	–	–	–
O=C(/C=C/c1ccc2c(c1)B(O)OC2)c1ccc(F)cc1	0.1 (≈ 0.355 µM)	> 10	0	–	–
COc1cc(C(=O)/C=C/c2ccc3c(c2)B(O)OC3)cc(OC)c1OC	0.113 (≈ 0.319 µM)	> 10	–	–	–
COc1cc(C(=O)/C=C/c2ccc3c(c2)B(O)OC3)ccc1N	0.01 (≈ 0.0323 µM)	1.45 (≈ 4.69 µM)	100	Active	> 100
COc1cccc(C(=O)/C=C/c2ccccc2)c1	0.395 (≈ 1.66 µM)	5.7 (≈ 23.9 µM)	–	–	–
O=C(/C=C/c1ccc2c(c1)B(O)OC2)c1ccccc1	0.089 (≈ 0.337 µM)	> 10	0	–	–
Cn1cccc1C(=O)/C=C/c1ccc2c(c1)B(O)OC2	0.057 (≈ 0.213 µM)	> 10	–	–	–
CC(=O)Nc1ccc(C(=O)/C=C/c2ccc3c(c2)B(O)OC3)cc1	0.04 (≈ 0.125 µM)	> 10	0	–	–
O=C(/C=C/c1ccc2c(c1)B(O)OC2)c1ccc(Br)cc1	0.09 (≈ 0.262 µM)	> 10	0	–	–
O=C(/C=C/c1ccc2c(c1)B(O)OC2)c1ccc(-c2ccccc2)cc1	0.436 (≈ 1.28 µM)	> 10	–	–	–
OB1OCc2ccc(/C=C/C(O)c3ccccc3)cc21 (centres undefined)	0.239 (≈ 0.898 µM)	2.88 (≈ 10.8 µM)	–	–	–
COc1cccc(C(=O)CCc2ccc3c(c2)B(O)OC3)c1	0.69 (≈ 2.33 µM)	> 10	–	–	–
COCOc1cccc(C(=O)/C=C/c2ccc3c(c2)B(O)OC3)c1	0.071 (≈ 0.219 µM)	> 10	0	–	–
COc1ccc(C(=O)/C=C/c2ccc3c(c2)B(O)OC3)c(OC)c1	0.037 (≈ 0.114 µM)	7.87 (≈ 24.3 µM)	–	–	–
Cc1cccc(C(=O)/C=C/c2ccc3c(c2)B(O)OC3)c1	0.048 (≈ 0.173 µM)	8.56 (≈ 30.8 µM)	0	–	–

Further lines, with some results ahead:

IC50 [1] [µg/mL]	SMILES	IC50 [2] [µg/mL]	survival at 50 mg/kg [3] [%]	Activity [4]	selectivity ratio [5]
0.082 (≈ 0.265 µM)	O=C(/C=C/c1ccc2c(c1)B(O)OC2)c1ccc([N+](=O)[O-])cc1	> 10	–	–	–
0.099 (≈ 0.373 µM)	O=C(/C=C/c1ccc2c(c1)B(O)OC2)c1ccccn1	> 10	–	–	–
0.024 (≈ 0.086 µM)	Nc1ccc(C(=O)/C=C/c2ccc3c(c2)B(O)OC3)cc1	> 10	–	–	–
0.043 (≈ 0.154 µM)	O=C(/C=C/c1ccc2c(c1)B(O)OC2)c1ccc(O)cc1	> 10	–	–	–
0.056 (≈ 0.201 µM)	Nc1cccc(C(=O)/C=C/c2ccc3c(c2)B(O)OC3)c1	10 (≈ 35.8 µM)	–	–	–
0.071 (≈ 0.252 µM)	O=C(/C=C/c1ccc2c(c1)B(O)OC2)c1ccccc1F	> 10	–	–	–
0.04 (≈ 0.137 µM)	Cc1ccc(C(=O)/C=C/c2ccc3c(c2)B(O)OC3)cc1C	> 10	–	–	–
4.45 (≈ 14.4 µM)	O=C(O)c1ccc(C(=O)/C=C/c2ccc3c(c2)B(O)OC3)cc1	> 10	–	–	–
0.172 (≈ 0.614 µM)	O=C(/C=C/c1ccc2c(c1)B(O)OC2)c1ccccc1O	> 10	–	–	–
0.046 (≈ 0.163 µM)	O=C(/C=C/c1ccc2c(c1)B(O)OC2)c1cccc(F)c1	> 10	–	–	–
0.058 (≈ 0.197 µM)	COc1ccccc1C(=O)/C=C/c1ccc2c(c1)B(O)OC2	6.35 (≈ 21.6 µM)	–	–	–
0.064 (≈ 0.252 µM)	O=C(/C=C/c1ccc2c(c1)B(O)OC2)c1ccco1	> 10	–	–	–
0.037 (≈ 0.132 µM)	O=C(/C=C/c1ccc2c(c1)B(O)OC2)c1cccc(O)c1	7.56 (≈ 27 µM)	–	–	–
0.046 (≈ 0.165 µM)	Cc1ccc(C(=O)/C=C/c2ccc3c(c2)B(O)OC3)cc1	> 10	–	–	–
0.133 (≈ 0.4 µM)	O=C(/C=C/c1ccc2c(c1)B(O)OC2)c1ccc(C(F)(F)F)cc1	> 10	–	–	–
0.059 (≈ 0.19 µM)	CSc1ccc(C(=O)/C=C/c2ccc3c(c2)B(O)OC3)cc1	> 10	–	–	–
0.064 (≈ 0.219 µM)	CCc1ccc(C(=O)/C=C/c2ccc3c(c2)B(O)OC3)cc1	> 10	–	–	–
0.09 (≈ 0.27 µM)	O=C(/C=C/c1ccc2c(c1)B(O)OC2)c1ccc(Cl)c(Cl)c1	> 10	–	–	–
0.055 (≈ 0.186 µM)	O=C(/C=C/c1ccc2c(c1)B(O)OC2)c1ccc(O)c(O)c1	> 10	–	–	–
0.08 (≈ 0.248 µM)	O=C(/C=C/c1ccc2c(c1)B(O)OC2)c1ccc2c(c1)OCCO2	6.8 (≈ 21.1 µM)	–	–	–
0.03 (≈ 0.0926 µM)	COc1ccc(C(=O)/C=C/c2ccc3c(c2)B(O)OC3)cc1OC	> 10	–	–	–
0.171 (≈ 0.438 µM)	O=C(/C=C/c1ccc2c(c1)B(O)OC2)c1ccc(I)cc1	> 10	–	–	–
